Consider 21 compounds from patent publication US20120190687A1, “Pyrazinylpyrazoles” (Bayer CropScience Ag, priority 2009, published 2012).

For one data set, the system named is Boophilus microplus. Briefly: Boophilus microplus test (BOOPMI injection). Particulars: 20 μg/animal, injection into abdomen, after 7 days, laying of fertile eggs. It is filed as in vivo. On the procedure:
Boophilus microplus Test (BOOPMI Injection) Solvent: Dimethyl Sulphoxide To prepare an appropriate active ingredient formulation, 10 mg of active ingredient are mixed with 0.5 ml of solvent and the concentrate is diluted with solvent to the desired concentration. The active ingredient solution is injected into the abdomen (Boophilus microplus), and the animals are transferred into dishes and stored in a climate-controlled room. The efficacy is assessed by laying of fertile eggs. After 7 days, the efficacy in % is determined. 100% means that none of the ticks has laid any fertile eggs.

In another data set the test system is Phaedon cochleariae. Put plainly: Phaedon test (PHAECO spray treatment). Conditions: 500 g/ha, Chinese cabbage discs, after 7 days. It counts as in vivo. Here is the method:
Phaedon Test ([…] Spray Treatment) Solvent: 78.0 parts by weight of acetone • • 1.5 parts by weight of dimethylformamide Emulsifier: 0.5 part by weight of alkylaryl polyglycol ether To prepare an appropriate active ingredient preparation, 1 part by weight of active ingredient is mixed with the stated amounts of solvent and emulsifier, and the concentrate is diluted with emulsifier-containing water to the desired concentration. Discs of Chinese cabbage (Brassica pekinensis) are sprayed with an active ingredient preparation of the desired concentration and, after drying, populated with larvae of the mustard beetle (Phaedon cochleariae). After 7 days, the efficacy in % is determined. 100% means that all beetle larvae have been killed; 0% means that none of the beetle larvae have been killed.

The test system of a further data set is Spodoptera frugiperda. Put plainly: Spodoptera frugiperda test (SPODFR spray treatment). It is filed as in vivo. Particulars: 500 g/ha, maize leaf discs, after 7 days. On the procedure:
Spodoptera frugiperda Test (SPODFR Spray Treatment) Solvent: 78.0 parts by weight of acetone • • 1.5 parts by weight of dimethylformamide Emulsifier: 0.5 part by weight of alkylaryl polyglycol ether To prepare an appropriate active ingredient preparation, 1 part by weight of active ingredient is mixed with the stated amounts of solvent and emulsifier, and the concentrate is diluted with emulsifier-containing water to the desired concentration. Discs of maize leaves (Zea mays) are sprayed with an active ingredient preparation of the desired concentration and, after drying, populated with caterpillars of the armyworm (Spodoptera frugiperda). After 7 days, the efficacy in % is determined. 100% means that all caterpillars have been killed; 0% means that none of the caterpillars have been killed.

Data set [1] can be described thus: logP by reversed-phase HPLC (EEC Directive 79/831 Annex V.A8). It counts as physicochemical. An excerpt:
[table] The calibration is effected with unbranched alkan-2-ones (having 3 to 16 carbon atoms) with known log P values (log P values determined on the basis of the retention times by linear interpolation between two successive alkanones).

The test system of a further data set is Lucilia cuprina larvae. Put plainly: Lucilia cuprina test (LUCICU). Conditions: 100 ppm, treated horse meat, after 2 days. It counts as in vivo. Here is the method: Lucilia cuprina Test (LUCICU) Solvent: Dimethyl Sulphoxide To prepare an appropriate active ingredient formulation, 10 mg of active ingredient are mixed with 0.5 ml of dimethyl sulphoxide and the concentrate is diluted with water to the desired concentration. Vessels containing horse meat treated with the active ingredient preparation of the desired concentration are populated with about 20 Lucilia cuprina larvae. After 2 days, the kill in % is determined. 100% means that all of the larvae have been killed; 0% means that none of the larvae have been killed.

The subject of another data set is Tetranychus urticae. Put plainly: Tetranychus test, OP-resistant (TETRUR spray treatment). It is filed as in vivo. Conditions: bean leaf discs, after 6 days. Here is the method:
Tetranychus Test, OP-resistant (TETRUR Spray Treatment)
Solvent: 78.0 parts by weight of acetone • • 1.5 parts by weight of dimethylformamide
Emulsifier: 0.5 part by weight of alkylaryl polyglycol ether
To prepare an appropriate active ingredient preparation, 1 part by weight of active ingredient is mixed with the stated amounts of solvent and emulsifier, and the concentrate is diluted with emulsifier-containing water to the desired concentration. Discs of bean leaves (Phaseolus vulgaris) infested by all stages of the red spider mite (Tetranychus urticae) are sprayed with an active ingredient preparation of the desired concentration. After 6 days, the efficacy in % is determined. 100% means that all spider mites have been killed; 0% means that none of the spider mites have been killed.

A further data set relates to Myzus persicae. Put plainly: Myzus test (MYZUPE spray treatment). It is filed as in vivo. Conditions: 500 g/ha, Chinese cabbage discs, after 6 days. On the procedure: Myzus test (MYZUPE Spray Treatment) Solvent: 78 parts by weight of acetone • • 1.5 parts by weight of dimethylformamide Emulsifier: 0.5 part by weight of alkylaryl polyglycol ether To prepare an appropriate active ingredient preparation, 1 part by weight of active ingredient is mixed with the stated amounts of solvent and emulsifier, and the concentrate is diluted with emulsifier-containing water to the desired concentration. Discs of Chinese cabbage (Brassica pekinensis) infested by all stages of the green peach aphid (Myzus persicae) are sprayed with an active ingredient preparation of the desired concentration. After 6 days, the efficacy in % is determined. 100% means that all of the aphids have been destroyed; 0% means that none of the aphids have been destroyed.

The test system of the next data set is Ctenocephalides felis. Briefly: Ctenocephalides felis test (CTECFE). It is filed as in vivo. Conditions: 100 ppm in citrated cow's blood, after 2 days. Here is the method: Ctenocephalides felis Test ([…]) Solvent: 1 Part by Weight of Dimethyl Sulphoxide For the purpose of preparing an appropriate active ingredient formulation, 10 mg of active ingredient are mixed with 0.5 ml of dimethyl sulphoxide. A portion of the concentrate is diluted with citrated cow's blood and the desired concentration is established. About 20 unfed adult fleas (Ctenocephalides felis) are introduced into a chamber closed at the top and bottom with gauze. A metal cylinder, the bottom of which is closed with Parafilm, is placed onto the chamber. The cylinder contains the blood/active ingredient preparation, which can be imbibed by the fleas through the Parafilm membrane. After 2 days, the kill in % is determined. 100% means that all fleas have been killed; 0% means that none of the fleas have been killed.

Where [2] appears, read: * LC-MS, acidic range, pH 2.7, 0.1% aqueous formic acid / acetonitrile.

As to `CSc1nccnc1-n1nc(C(F)(F)F)c(-c2cc(Cl)cc(C(F)(F)F)c2)c1N` [Ex. 28], the efficacy with Boophilus microplus, in the data set with Phaedon cochleariae and in the data set with Spodoptera frugiperda was 100% throughout. Also, in data set [1] (setting [2]), the “log P” value is 4.9*. The “efficacy (kill)” value in the data set on Lucilia cuprina larvae is reported as 100%.

As for `CCOc1cc(-c2c(C(F)(F)F)nn(-c3nccnc3OC)c2N)cc(Cl)c1OCC(F)(F)F` [Ex. 144], the efficacy in the data set with Phaedon cochleariae, with Spodoptera frugiperda and in the data set with Tetranychus urticae (500 g/ha) was 100% in each case. Also, the “log P” value in data set [1] (setting [2]) is reported as 4.21*.

In the case of `C=CCN(CC=C)c1c(-c2cc(Cl)cc(C(F)(F)F)c2)c(C(F)(F)F)nn1-c1nccnc1OC` [Ex. 103], in the data set on Myzus persicae, the efficacy turned out to be 80%. In data set [1] (setting [2]), the “log P” value is 4.08*.

Consider `COc1nccnc1-n1nc(C(F)(F)C(F)F)c(-c2cc(Cl)c(Cl)c(Cl)c2)c1N` [Ex. 116], for which the efficacy with Phaedon cochleariae is on record as 100%; in the data set on Spodoptera frugiperda it was 100%; in the data set on Tetranychus urticae (500 g/ha) it was 90%. In data set [1] (** acidic range, pH 2.3, 0.1% aqueous phosphoric acid / acetonitrile), the “log P” value was 4.37**.

Turning to `COc1nccnc1-n1nc(C(F)(F)C(F)F)c(-c2cc(Cl)c3c(c2)CCO3)c1N` [Ex. 66], the efficacy in the data set on Phaedon cochleariae is given as 100%; in the data set on Spodoptera frugiperda, 100%; in the data set with Tetranychus urticae (500 g/ha), 90%. Besides, the “log P” value in data set [1] (setting [2]) is 3.22*.

`COc1nccnc1-n1nc(C(F)(F)F)c(-c2cc(Cl)c(N(C)C)c(C(F)(F)F)c2)c1N` [Ex. 123]: the values for the efficacy in the data set on Phaedon cochleariae, with Spodoptera frugiperda and in the data set with Tetranychus urticae (500 g/ha) were 100%, 100% and 80%, respectively. Besides, in data set [1] (setting [2]), the “log P” value is given as 4.72*.

With `COc1nccnc1-n1nc(C(F)(F)F)c(-c2cc(Cl)c3c(c2)COCO3)c1N` [Ex. 135], the efficacy in the data set with Boophilus microplus is 100%; in the data set on Phaedon cochleariae it was 100%; with Spodoptera frugiperda it was 80%. In addition, the “log P” value in data set [1] (setting [2]) was 3.02*. Further, the “efficacy (kill)” value in the data set on Lucilia cuprina larvae and in the data set on Ctenocephalides felis was 100% throughout.

Turning to `COc1nccnc1-n1nc(C(F)(F)C(F)F)c(-c2cc(Cl)cc(C(F)(F)F)c2)c1N` [Ex. 59], the efficacy turned out to be 100% in the data set on Myzus persicae, 100% with Phaedon cochleariae, 83% in the data set on Spodoptera frugiperda and 100% in the data set on Tetranychus urticae (500 g/ha). Moreover, the “log P” value in data set [1] (setting [2]) was 4.05*.

For `COc1nccnc1-n1nc(C(F)(F)F)c(-c2cc(Cl)c3c(c2)OCCCO3)c1N` [Ex. 136], the efficacy in the data set with Boophilus microplus and in the data set on Phaedon cochleariae was 100% throughout. In data set [1] (setting [2]), the “log P” value was 3.25*. Further, the “efficacy (kill)” value with Lucilia cuprina larvae and with Ctenocephalides felis was 100% throughout.

As to `COc1nccnc1-n1nc(C(F)(F)C(F)F)c(-c2cc(Cl)c3c(c2)OCO3)c1N` [Ex. 65], the values for the efficacy in the data set on Phaedon cochleariae, in the data set on Spodoptera frugiperda and in the data set with Tetranychus urticae (500 g/ha) were 100%, 100% and 90%, respectively. Further, the “log P” value in data set [1] (setting [2]) is reported as 3.18*.

For `C=C(C)c1nn(-c2nccnc2OC)c(N)c1-c1cc(Cl)cc(Cl)c1` [Ex. 167], the efficacy with Myzus persicae, in the data set on Phaedon cochleariae and with Tetranychus urticae (500 g/ha) was 100% in each case. Besides, in data set [1] (setting [2]), the “log P” value is listed as 3.79*.

As for `COc1nccnc1-n1nc(C(F)(F)F)c(-c2cc(Cl)cc(C(F)(F)F)c2)c1NCc1ccccc1` [Ex. 33], the efficacy with Myzus persicae amounted to 80%; in the data set with Phaedon cochleariae, 100%; in the data set with Tetranychus urticae (500 g/ha) it was 90%. In addition, the “log P” value in data set [1] (setting [2]) is 5.28*.

Turning to `COc1ccc(CNc2c(-c3cc(Cl)cc(C(F)(F)F)c3)c(C(F)(F)F)nn2-c2nccnc2OC)cc1` [Ex. 41], the efficacy in the data set on Myzus persicae is given as 90%; in the data set on Phaedon cochleariae, 100%. In addition, the “log P” value in data set [1] (setting [2]) is 5.13*. Besides, the “efficacy (kill)” value turned out to be 100% with Lucilia cuprina larvae and 80% in the data set on Ctenocephalides felis.

On to `COc1nccnc1-n1nc(C(F)(F)F)c(-c2cc3c(c(C(F)(F)F)c2)OCCO3)c1N` [Ex. 173], for which the figures for the efficacy in the data set with Phaedon cochleariae, in the data set on Spodoptera frugiperda and in the data set with Tetranychus urticae (500 g/ha) were 100%, 100% and 90%, respectively. Besides, the “log P” value in data set [1] (setting [2]) is recorded as 3.27*.

As for `COc1nccnc1-n1nc(C(F)(F)F)c(-c2cc(Cl)c(N(C)C)c(Cl)c2)c1N` [Ex. 121], the efficacy is recorded as 100% with Phaedon cochleariae, 100% in the data set with Spodoptera frugiperda and 80% in the data set with Tetranychus urticae (100 g/ha). For the same compound, the “log P” value in data set [1] (setting [2]) is on record as 4.46*.

For `C=Cc1nn(-c2nccnc2OC)c(N)c1-c1cc(Cl)cc(C(F)(F)F)c1` [Ex. 9], the efficacy with Boophilus microplus, with Myzus persicae, with Phaedon cochleariae, in the data set on Spodoptera frugiperda and in the data set on Tetranychus urticae (500 g/ha) was 100% each time. Moreover, in data set [1] (setting [2]), the “log P” value is listed as 3.63*. For the same compound, the “efficacy (kill)” value in the data set with Lucilia cuprina larvae is on record as 100%.

With `COc1cc(-c2c(C(F)(F)C(F)F)nn(-c3nccnc3OC)c2N)cc(C(F)(F)F)c1OC` [Ex. 157], the efficacy with Phaedon cochleariae, in the data set with Spodoptera frugiperda and with Tetranychus urticae (500 g/ha) was 100% in each case. Also, the “log P” value in data set [1] (setting [2]) is reported as 3.58*.

Regarding `COc1nccnc1-n1nc(C(F)(F)F)c(-c2cc(F)c(OC)c(Cl)c2)c1N` [Ex. 124], the efficacy was determined as 100% with Phaedon cochleariae, 100% in the data set with Spodoptera frugiperda and 90% in the data set on Tetranychus urticae (500 g/ha). The “log P” value is 3.47* in data set [1] (setting [2]) and 3.5***; in data set [1] (*** LC-MS, neutral range, pH 7.8, 0.001 molar aqueous ammonium hydrogencarbonate / acetonitrile).

As to `COc1nccnc1-n1nc(C(C)(C)F)c(-c2cc(Cl)cc(Cl)c2)c1N` [Ex. 168], the efficacy with Myzus persicae, in the data set with Phaedon cochleariae, in the data set with Spodoptera frugiperda and in the data set with Tetranychus urticae (500 g/ha) was 100% each time. Moreover, the “log P” value in data set [1] (setting [2]) is reported as 3.77*.

As for `COc1nccnc1-n1nc(C(F)(F)C(F)(F)C(F)(F)F)c(-c2cc(Cl)cc(C(F)(F)F)c2)c1N` [Ex. 46], the efficacy with Boophilus microplus is listed as 100%; in the data set on Myzus persicae, 80%; in the data set with Phaedon cochleariae, 100%; in the data set with Spodoptera frugiperda it was 100%; with Tetranychus urticae (500 g/ha) it was 80%. Moreover, in data set [1] (setting [2]), the “log P” value is listed as 4.91*. Further, the “efficacy (kill)” value with Lucilia cuprina larvae stood at 100%; in the data set on Ctenocephalides felis it was 80%.

`CCC(OC)c1nn(-c2nccnc2OC)c(N)c1-c1ccc(Cl)c(Cl)c1` (stereo not shown) [Ex. 3]: the efficacy with Boophilus microplus, in the data set on Phaedon cochleariae and in the data set on Tetranychus urticae (500 g/ha) was 100% in each case. The “efficacy (kill)” value in the data set with Lucilia cuprina larvae is given as 100%.
